In paper PMC9633101 (Science signaling, 2022):

Target: T1, TRPL (TRPL::EGFP) (Drosophila melanogaster, UniProt P48994)
T1 sequence (P48994 1-1124): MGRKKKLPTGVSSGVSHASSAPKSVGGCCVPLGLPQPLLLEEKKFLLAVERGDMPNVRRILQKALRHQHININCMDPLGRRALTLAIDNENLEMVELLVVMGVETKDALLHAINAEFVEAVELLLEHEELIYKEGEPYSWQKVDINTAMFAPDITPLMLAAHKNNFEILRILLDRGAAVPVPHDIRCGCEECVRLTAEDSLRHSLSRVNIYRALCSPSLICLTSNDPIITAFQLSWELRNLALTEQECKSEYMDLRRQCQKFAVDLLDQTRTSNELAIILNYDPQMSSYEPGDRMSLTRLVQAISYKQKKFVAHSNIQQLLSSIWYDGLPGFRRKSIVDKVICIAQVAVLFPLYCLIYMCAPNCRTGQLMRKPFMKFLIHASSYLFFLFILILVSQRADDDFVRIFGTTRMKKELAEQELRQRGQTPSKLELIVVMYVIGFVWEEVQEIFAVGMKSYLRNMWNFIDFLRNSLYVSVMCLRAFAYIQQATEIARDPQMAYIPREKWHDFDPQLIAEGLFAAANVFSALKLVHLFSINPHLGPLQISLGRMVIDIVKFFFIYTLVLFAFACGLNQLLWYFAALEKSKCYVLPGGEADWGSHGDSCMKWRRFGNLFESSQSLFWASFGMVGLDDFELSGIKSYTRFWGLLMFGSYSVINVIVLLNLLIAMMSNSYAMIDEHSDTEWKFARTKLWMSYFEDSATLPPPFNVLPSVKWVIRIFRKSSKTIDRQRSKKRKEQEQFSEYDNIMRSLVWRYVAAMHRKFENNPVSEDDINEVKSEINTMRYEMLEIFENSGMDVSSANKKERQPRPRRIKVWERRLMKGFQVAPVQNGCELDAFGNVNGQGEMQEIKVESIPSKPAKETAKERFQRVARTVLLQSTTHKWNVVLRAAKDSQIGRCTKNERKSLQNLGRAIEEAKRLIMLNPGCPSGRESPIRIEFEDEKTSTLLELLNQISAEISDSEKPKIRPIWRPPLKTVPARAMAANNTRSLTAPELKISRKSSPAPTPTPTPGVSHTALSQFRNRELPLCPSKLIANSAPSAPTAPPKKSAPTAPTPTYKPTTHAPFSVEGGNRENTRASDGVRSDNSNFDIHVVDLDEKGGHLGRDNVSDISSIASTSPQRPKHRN
Assay: Fura-2 Ca2+ imaging, S2 cells
Type: cell-based

Going from CCCCC/C=C\C/C=C\CCCCCCCC(=O)NCC(=O)O [LinGly, linoleoyl glycine] to CCCCC/C=C\C/C=C\CCCCCCCC(=O)NCCO [LEA, linoleoyl ethanolamide], the EC50 rises from 2.99 µM to 7.04 µM (2.4-fold). The first is the more potent here.

CCCCC/C=C\C/C=C\CCCCCCCC(=O)OC(CO)CO [2-LG, 2-linoleoyl glycerol] was tested, and the EC50 was 5.23 µM.
